# Measurements from the COVID Moonshot data (paper PMC7615835).
# Where “and” joins values, the source holds several entries; their conditions need not be identical. Equal values may be shown once.
# Target: SARS-CoV-2 Main Protease (SARS-CoV-2) (UniProt P0DTD1)
row,SMILES,IC50
1,CCC1(C(=O)Nc2cncc3ccc(S(C)(=O)=O)cc23)CNC(=O)c2ccc(Cl)cc21 (centres undefined),1450 nM
2,O=C(CCl)N1CCN(Cc2cc(O)ccc2O)CC1,37400 nM
3,O=C(Cc1cccc(Cl)c1)Nc1cncc2c1OCCC2,10100 nM and 14000 nM
4,CC(C)(C)c1ccc(N(C(=O)c2[nH]nc(O)c2CCO)C(C(=O)NCCc2cccc(F)c2)c2cccnc2)cc1 (centres undefined),> 99500 nM
5,CC(C)(C)NC(=O)CN1CC(C(=O)Nc2cncc3cc(S(C)(=O)=O)ccc23)c2cc(Cl)ccc2C1=O (centres undefined),248 nM
6,Nc1nn(C(=O)Cc2cccc(Cl)c2)c2ccc(F)cc12,> 99500 nM
7,Cc1cc(NC(=O)Cc2cncnc2)cc(OC2CC(=O)N2)c1 (centres undefined),34600 nM and 34000 nM
8,O=C(Cc1cc(Cl)cc(N2CCN(C(=O)OCc3ccccc3)CC2)c1)Nc1cncc2ccccc12,2230 nM
9,O=C(Cc1cccc(Cl)c1)Nc1cncc2cnoc12,23900 nM
10,CC(NCc1cnc2ccccn12)c1nnc2ccccn12 (centres undefined),> 99500 nM
11,O=C(Nc1cncc2ccccc12)C1CN(C(=O)c2ncco2)Cc2ccc(Cl)cc21 (centres undefined),918 nM
12,CNC(=O)C(C)(C)N1CC(C(=O)Nc2cncc3ccccc23)c2cc(Cl)ccc2C1=O (centres undefined),1020 nM
13,COC(=O)[C@H]1C[C@H](NC(=O)C(c2cccnc2)N(C(=O)c2cocn2)c2ccc(C(C)(C)C)cc2)CN1C(=O)OC(C)(C)C (stereo in doubt),837 nM
14,O=C(Cc1cc(Cl)cc(N(C2CCCCC2)C2CCCCC2)c1)Nc1cncc2ccccc12,2300 nM
15,COC(=O)c1ccc(-c2cc(Cl)cc(CC(=O)Nc3cnccc3C)c2)c(OC)c1,9620 nM and 16800 nM
16,CCOC(=O)CCNC(=O)C(c1cccnc1)N(C(=O)c1cocn1)c1ccc(C(C)(C)C)cc1 (centres undefined),2800 nM
17,COc1cc2cncc(NC(=O)Cc3cccc(Cl)c3)c2cc1OC,> 99500 nM
18,COCCNC(=O)C(c1cccnc1)N(C(=O)c1cocn1)c1ccc(C(C)(C)C)cc1 (centres undefined),8460 nM
19,CC1CN(CCO)CCN1C(=O)CC1(C(=O)Nc2cncc3ccccc23)CCOc2ccc(Cl)cc21 (centres undefined),14500 nM
20,O=C1NC2(COc3ccc(Cl)cc32)C(=O)N1c1cncc2ccc(F)cc12 (centres undefined),1380 nM
21,N#CC1(CS(=O)(=O)N2Cc3ccc(Cl)cc3C(C(=O)Nc3cncc4ccc(F)cc34)C2)CC1 (centres undefined),137 nM
22,Cc1cc(Br)c(Nc2cc(Cl)cc(CC(=O)Nc3cncc4ccccc34)c2)c([N+](=O)[O-])c1,1940 nM
23,C[n+]1ccn(CCc2cccc(Cl)c2)c1C#N,> 99500 nM
24,O=C(Cc1cccc(Cl)c1)Nc1c(O)cnc2ccccc12,8440 nM
25,N#CCS(=O)(=O)N1Cc2ccc(Cl)cc2C(C(=O)Nc2cncc3ccccc23)C1 (centres undefined),330 nM

row,SMILES,IC50
1,O=C(Cc1cc(Cl)cc(Nc2ccc3nccnc3c2Br)c1)Nc1cncc2ccccc12,1970 nM
2,O=C(Nc1cncc2ccccc12)C1CCN(Cc2cnc[nH]2)c2ccc(Cl)cc21 (centres undefined),1120 nM
3,O=C(Nc1cncc2ccccc12)C1CN(C(=O)c2cnco2)Cc2ccc(Cl)cc21 (centres undefined),1070 nM
4,CC1(CS(=O)(=O)N2Cc3ccc(Cl)cc3C3(CCN(c4cncc5ccccc45)C3=O)C2)CS(=O)(=O)C1 (centres undefined),144 nM
5,O=C(Nc1cncc2ccccc12)C12CCC(O1)c1cc(Cl)ccc12 (centres undefined),2390 nM
6,COc1ccc(C(Cc2ccsc2)C(=O)Nc2n[nH]c3ccccc23)cc1 (centres undefined),> 99500 nM
7,O=C(CCl)N1CCN(Cc2cccs2)CC1,5660 nM and 6770 nM
8,CC1CCNC(=O)C1NC(=O)Cc1cccc(Cl)c1 (centres undefined),43700 nM
9,N#Cc1cccc(C2CN(C(=O)CCl)Cc3ccccc32)c1 (centres undefined),1170 nM
10,Cc1cccc(C2CN(C(=O)CCl)Cc3ccccc32)c1 (centres undefined),2000 nM
11,O=C(Cn1nnc2ccccc21)N(Cc1ccsc1)c1ccc(N2CCOCC2)cc1,11600 nM
12,CCCNC(=O)CN1CC(C(=O)Nc2cncc3ccccc23)c2cc(Cl)ccc2C1=O (centres undefined),86.4 nM and 174 nM
13,O=C(NCCc1cccc(F)c1)C(c1cccnc1)N(C(=O)c1cocn1)c1ccc(-c2nnc3n2CCC3)cc1 (centres undefined),> 99500 nM
14,O=C(NCc1ccc2c(c1)OCO2)c1nc(S(=O)(=O)Cc2ccccc2)ncc1Cl,1400 nM
15,O=C(CCc1nc2ccccc2[nH]1)N1CCC(CCc2ccccc2)CC1,> 99500 nM
16,Cc1ccncc1NC(=O)Cc1cc(Cl)cc(-c2ccc(S(C)(=O)=O)cc2Cl)c1,> 99500 nM
17,C=CC(=O)NCc1ccccc1S(=O)(=O)NC,> 99500 nM
18,CNC(=O)CN1CC(C)(C(=O)Nc2cncc3cc(S(C)(=O)=O)ccc23)c2cc(Cl)ccc2S1(=O)=O (centres undefined),131 nM and 189 nM
19,CCOc1ccccc1CNc1cc(Cl)cc(CC(=O)Nc2cncc3ccccc23)c1,2070 nM
20,Cc1ccncc1NC(=O)Cc1cc(Cl)cc(S(N)(=O)=O)c1,14600 nM
21,O=C(Nc1cncc2ccccc12)C1CCOc2c(OCc3cccnc3)cc(Cl)cc21 (centres undefined),24900 nM and > 9950 nM
22,O=C1C(=O)N(Cc2ccc(Br)cc2)c2ccccc21,> 198000 nM
23,COCCN(C)S(=O)(=O)N1Cc2ccc(Cl)cc2C2(CCN(c3cncc4ccccc34)C2=O)C1 (centres undefined),993 nM
24,O=C(COC(=O)C1(c2ccccc2)CCC1)c1c[nH]c2ccccc12,> 99500 nM
25,COc1cc2c(cc1OC)CN(c1cc(Cl)cc(CC(=O)Nc3cncc4ccccc34)c1)CC2,1650 nM

row,SMILES,IC50
1,N#CC1(CS(=O)(=O)N2Cc3ccc(Cl)cc3C3(CCN(c4cncc5c4CCCC5)C3=O)C2)CC1 (centres undefined),515 nM
2,O=C(NCCc1cccc(F)c1)C(c1cccnc1)N(C(=O)c1cocn1)c1ccc2nc(C(F)(F)F)[nH]c2c1 (centres undefined),77600 nM
3,O=C(Cc1cc(Cl)cc(Nc2cc(Br)ccc2F)c1)Nc1cncc2ccccc12,1900 nM
4,O=C1CCC(c2ccc(N(C(=O)c3cocn3)C(C(=O)NCCc3cccc(F)c3)c3cccnc3)cc2)N1 (centres undefined),> 99500 nM
5,O=C(NCCc1ccccc1)[C@@H](c1ccccc1)N1Cc2ccccc2C1=O (stereo in doubt),> 99500 nM
6,Cn1ncc2c(=O)[nH]c(NNC(=O)c3cccn4nccc34)nc21,> 99500 nM
7,O=C(Cc1cc(Cl)cc(N[C@@H](CO)Cc2ccccc2)c1)Nc1cncc2ccccc12 (stereo in doubt),2500 nM
8,O=C(Cc1c[nH]c2cc(Cl)ccc12)Nc1cccc2[nH]c(=O)[nH]c12,> 99500 nM
9,O=C(CN1CC(C(=O)Nc2cncc3cc(F)ccc23)c2cc(Cl)ccc2C1=O)NCC1CC1 (centres undefined),216 nM
10,O=C(Cc1cncc2ccccc12)N1CCOc2ccc(Cl)cc21,6050 nM
11,C=CC(=O)N(c1ccc(C(C)(C)C)cc1)C(C(=O)NC)c1cccnc1 (centres undefined),35700 nM
12,Cc1cccc(CC2CCN(C(=O)CCl)CC2)c1,14700 nM
13,O=C(Cc1cc(Cl)cc(Nc2ccccc2Sc2ccccc2)c1)Nc1cncc2ccccc12,2470 nM
14,O=C(NC[C@@]1(C(=O)Nc2cncc3ccccc23)CCOc2ccc(Cl)cc21)[C@]1(O)CCSC1 (stereo in doubt),1940 nM
15,C[C@H](Nc1cc(Cl)cc(CC(=O)Nc2cncc3ccccc23)c1)c1cccc2ccccc12 (stereo in doubt),3530 nM
16,CNC(=O)CN1Cc2ccc(Cl)cc2C(C(=O)Nc2cncc3ccc(C(C)(C)O)cc23)C1 (centres undefined),564 nM
17,O=C(Cc1cc(Cl)cc(Nc2cccc(F)c2[N+](=O)[O-])c1)Nc1cncc2ccccc12,1990 nM
18,CNC(=O)CN1CC2(CCN(c3cncc4cccc(Cl)c34)C2=O)c2cc(Cl)ccc2C1=O (centres undefined),1670 nM
19,CC(C)(C)c1ccc(N(C(=O)c2c[nH]c(=O)cn2)C(C(=O)NCCc2cccc(F)c2)c2cccnc2)cc1 (centres undefined),77100 nM
20,CNC1CCc2c(NC(=O)C3CCOc4ccc(Cl)cc43)cncc21 (centres undefined),> 99500 nM
21,Cc1ccncc1NC(=O)Cc1cccc(C#N)c1,63700 nM and 59000 nM
22,N#CC1(CS(=O)(=O)NCc2ccc(Cl)cc2CC(=O)Nc2cncc3ccccc23)CC1,133 nM
23,Cn1c(NCc2cn3ccnc3s2)nc2ccccc21,> 99500 nM
24,COc1ccc(N(Cc2ccccc2)C(=O)Cc2c[nH]c3ccccc23)cc1,> 99500 nM
25,Cn1c(=O)oc2cc(S(=O)(=O)Nc3ccc4ncccc4c3)ccc21,> 99500 nM

row,SMILES,IC50
1,CC(C)(C)c1ccc(N(C(=O)c2ccnc(N3CCOCC3)n2)C(C(=O)NCCc2cccc(F)c2)c2cccnc2)cc1 (centres undefined),> 99500 nM
2,CNC(=O)CN1CC(C)(C(=O)Nc2cncc3ccccc23)c2cc(Cl)ccc2C1=O (centres undefined),128 nM and 214 nM
3,CN(C)CC1(C(=O)Nc2cncc3ccccc23)CCOc2ccc(Cl)cc21 (centres undefined),11500 nM
4,COC1(CS(=O)(=O)N2Cc3ccc(Cl)cc3C3(CCN(c4cncc5ccccc45)C3=O)C2)CC1 (centres undefined),356 nM
5,Cn1ccnc1CN(C(=O)CC1(C(=O)Nc2cncc3ccccc23)CCOc2ccc(Cl)cc21)C1CC1 (centres undefined),5050 nM
6,CNC(=O)c1ccc2cncc(NC(=O)C3CN(S(=O)(=O)CC4(C)CS(=O)(=O)C4)Cc4ccc(Cl)cc43)c2c1 (centres undefined),110 nM
7,N#CC(C(=O)Nc1cncc2ccccc12)c1ccc(Cl)c(Cl)c1 (centres undefined),803 nM
8,O=C(Cc1cc(Cl)cc(Nc2ccc3c(c2)OC(F)(F)O3)c1)Nc1cncc2ccccc12,2070 nM
9,CN(C)c1ccc(N(Cc2cscn2)C(=O)Cn2nnc3ccccc32)cc1,4850 nM
10,O=C(Cc1cc(Cl)cc(Nc2ccc(Oc3ccccc3Cl)cc2)c1)Nc1cncc2ccccc12,2490 nM
11,C[C@]1(C(=O)Nc2cncc3ccccc23)CCNc2cc(Cl)c(Cl)cc21 (stereo in doubt),97700 nM
12,Cc1cnc(Nc2cc(Cl)cc(CC(=O)Nc3cncc4ccccc34)c2)c([N+](=O)[O-])c1,1860 nM
13,O=C(c1cc(=O)[nH]c2ccccc12)N1CCN(Cc2cccc(Cl)c2)CC1,4570 nM
14,COCCc1ccc(Cl)cc1CN1CCN(C(=O)CCl)CC1,2200 nM
15,Cc1ccncc1C(C(=O)NCCc1cccc(F)c1)N(C(=O)c1cocn1)c1ccc(C(C)(C)C)cc1 (centres undefined),653 nM
16,CCN(CC)CCOc1ccc2cncc(N3CCC4(CN(S(=O)(=O)CC5(C#N)CC5)Cc5ccc(Cl)cc54)C3=O)c2c1 (centres undefined),183 nM
17,O=C(NNc1cc(O)nc2ncccc12)c1ccnc2ccccc12,> 99500 nM
18,O=C1O[C@@]2(CCOc3ccc(Cl)cc32)C(=O)N1c1cncc2ccccc12 (stereo in doubt),> 99500 nM
19,CC(c1ccccc1)N(C(=O)c1cnc[nH]1)C(C(=O)NCCc1cccc(F)c1)c1cccnc1 (centres undefined),> 99000 nM
20,CNC(=O)C1(N2Cc3ccc(Cl)cc3C3(CCN(c4cncc5ccccc45)C3=O)C2)CC1 (centres undefined),73.2 nM
21,Cn1ncc2cc(C(=O)NNc3nc4cccnc4s3)cnc21,> 99500 nM
22,C=CC(=O)N(Cc1ccccc1Cl)C(C(=O)NC(C)(C)C)c1cncc2ccccc12 (centres undefined),> 99500 nM
23,O=C(CCl)N1CCN(Cc2cccc3ccccc23)CC1,5760 nM
24,O=C(Cc1cccc(Cl)c1)Nc1cncn1-c1ccccc1,> 99500 nM
